Test results as given in ChEMBL document CHEMBL5649169 (ChemMedChem, 2018).

Experiments:
Homo sapiens [1] = organism: Homo sapiens
[2] = biological target: RAC-alpha serine/threonine-protein kinase (Homo sapiens) (UniProt P31749)
[3] = biological target: AP-2 complex subunit beta (Homo sapiens) (UniProt P63010)
[4] = biological target: Acylamino-acid-releasing enzyme (Homo sapiens) (UniProt P13798)
[5] = biological target: Actin-related protein 2/3 complex subunit 5 (Homo sapiens) (UniProt O15511)
[6] = biological target: ATP synthase F(0) complex subunit e, mitochondrial (Homo sapiens) (UniProt P56385)
[7] = biological target: Breakpoint cluster region protein (Homo sapiens) (UniProt P11274)
Cyclin-T1 (Homo sapiens) = Cyclin-T1 (Homo sapiens) (UniProt O60563)
[8] = biological target: Chromodomain-helicase-DNA-binding protein 4 (Homo sapiens) (UniProt Q14839)
[9] = biological target: Exportin-2 (Homo sapiens) (UniProt P55060)
[10] = biological target: ATP-dependent RNA helicase DDX18 (Homo sapiens) (UniProt Q9NVP1)
[11] = biological target: Dynein light chain 1, cytoplasmic (Homo sapiens) (UniProt P63167)
[12] = biological target: Eukaryotic translation initiation factor 6 (Homo sapiens) (UniProt P56537)
Erlin-1 (Homo sapiens) = Erlin-1 (Homo sapiens) (UniProt O75477)
[13] = biological target: Protein FAM83E (Homo sapiens) (UniProt Q2M2I3)
Homo sapiens [14] = organism: Homo sapiens; remark: listed apart in the source
[15] = biological target: Tyrosine-protein kinase BTK (Homo sapiens) (UniProt Q06187)
[16] = biological target: Hexokinase-1 (Homo sapiens) (UniProt P19367)
[17] = biological target: Serine/threonine-protein kinase LATS1 (Homo sapiens) (UniProt O95835)
[18] = biological target: L-lactate dehydrogenase A chain (Homo sapiens) (UniProt P00338)
[19] = biological target: Mitogen-activated protein kinase kinase kinase kinase 2 (Homo sapiens) (UniProt Q12851)
[20] = biological target: Mitochondrial antiviral-signaling protein (Homo sapiens) (UniProt Q7Z434)
[21] = biological target: NADH dehydrogenase [ubiquinone] 1 alpha subcomplex subunit 5 (Homo sapiens) (UniProt Q16718)
[22] = biological target: ADP-sugar pyrophosphatase (Homo sapiens) (UniProt Q9UKK9)
[23] = biological target: Serine/threonine-protein kinase PAK 4 (Homo sapiens) (UniProt O96013)
Peflin (Homo sapiens) = Peflin (Homo sapiens) (UniProt Q9UBV8)
[24] = biological target: GPI-anchor transamidase component PIGS (Homo sapiens) (UniProt Q96S52)
[25] = biological target: Phosphatidylinositol 5-phosphate 4-kinase type-2 alpha (Homo sapiens) (UniProt P48426)
[26] = biological target: Serine/threonine-protein phosphatase 2A 55 kDa regulatory subunit B alpha isoform (Homo sapiens) (UniProt P63151)
[27] = biological target: cAMP-dependent protein kinase catalytic subunit alpha (Homo sapiens) (UniProt P17612)
[28] = biological target: Glutamine--tRNA ligase (Homo sapiens) (UniProt P47897)
Homo sapiens [29] = organism: Homo sapiens; remark: listed apart in the source
[30] = biological target: RNA-binding protein 3 (Homo sapiens) (UniProt P98179)
[31] = biological target: ATP-dependent DNA helicase Q1 (Homo sapiens) (UniProt P46063)
[32] = biological target: Small ribosomal subunit protein eS21 (Homo sapiens) (UniProt P63220)
[33] = biological target: RuvB-like 2 (Homo sapiens) (UniProt Q9Y230)
[34] = biological target: Deoxynucleoside triphosphate triphosphohydrolase SAMHD1 (Homo sapiens) (UniProt Q9Y3Z3)
[35] = biological target: Large neutral amino acids transporter small subunit 1 (Homo sapiens) (UniProt Q01650)
[36] = biological target: Serine/arginine-rich splicing factor 3 (Homo sapiens) (UniProt P84103)
[37] = biological target: E3 ubiquitin-protein ligase synoviolin (Homo sapiens) (UniProt Q86TM6)
[38] = biological target: Antigen peptide transporter 2 (Homo sapiens) (UniProt Q03519)
[39] = biological target: TBC1 domain family member 15 (Homo sapiens) (UniProt Q8TC07)
[40] = biological target: Serine/threonine-protein kinase TBK1 (Homo sapiens) (UniProt Q9UHD2)
[41] = biological target: DNA topoisomerase 2-alpha (Homo sapiens) (UniProt P11388)
[42] = biological target: Heat shock protein 75 kDa, mitochondrial (Homo sapiens) (UniProt Q12931)
[43] = biological target: Splicing factor U2AF 35 kDa subunit (Homo sapiens) (UniProt Q01081)
[44] = biological target: 14-3-3 protein gamma (Homo sapiens) (UniProt P61981)
Note: assay method not described here.

Chain of RNA-binding protein 3 (Homo sapiens) (P98179 whole entry): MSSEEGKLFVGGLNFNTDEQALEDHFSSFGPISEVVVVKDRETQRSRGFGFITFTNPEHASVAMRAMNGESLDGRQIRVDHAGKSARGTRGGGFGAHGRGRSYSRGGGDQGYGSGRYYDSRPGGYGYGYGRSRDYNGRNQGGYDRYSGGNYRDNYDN
Chain of Hexokinase-1 (Homo sapiens) (P19367 whole entry): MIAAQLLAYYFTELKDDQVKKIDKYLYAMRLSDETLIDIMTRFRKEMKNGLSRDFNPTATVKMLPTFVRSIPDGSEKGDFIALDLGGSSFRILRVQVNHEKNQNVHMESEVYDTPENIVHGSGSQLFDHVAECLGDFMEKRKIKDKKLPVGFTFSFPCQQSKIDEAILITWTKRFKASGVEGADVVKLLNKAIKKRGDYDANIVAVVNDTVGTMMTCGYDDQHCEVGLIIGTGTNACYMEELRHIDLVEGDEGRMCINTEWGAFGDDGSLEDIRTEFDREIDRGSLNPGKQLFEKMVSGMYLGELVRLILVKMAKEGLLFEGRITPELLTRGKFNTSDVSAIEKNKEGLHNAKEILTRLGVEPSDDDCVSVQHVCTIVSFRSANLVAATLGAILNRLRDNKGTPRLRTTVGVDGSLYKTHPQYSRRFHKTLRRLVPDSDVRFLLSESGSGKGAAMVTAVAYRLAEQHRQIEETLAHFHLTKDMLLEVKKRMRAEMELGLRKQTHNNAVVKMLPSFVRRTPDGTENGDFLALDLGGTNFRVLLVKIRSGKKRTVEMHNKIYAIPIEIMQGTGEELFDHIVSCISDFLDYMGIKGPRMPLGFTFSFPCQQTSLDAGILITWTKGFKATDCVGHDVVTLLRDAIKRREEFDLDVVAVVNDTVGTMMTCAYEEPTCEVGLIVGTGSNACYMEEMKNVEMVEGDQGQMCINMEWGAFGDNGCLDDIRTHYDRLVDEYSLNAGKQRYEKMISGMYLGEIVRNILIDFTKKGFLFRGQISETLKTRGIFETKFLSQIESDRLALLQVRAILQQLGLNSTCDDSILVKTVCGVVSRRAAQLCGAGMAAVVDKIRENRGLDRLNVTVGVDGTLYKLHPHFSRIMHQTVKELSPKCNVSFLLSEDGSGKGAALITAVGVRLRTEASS
Chain of NADH dehydrogenase [ubiquinone] 1 alpha subcomplex subunit 5 (Homo sapiens) (Q16718 whole entry, one chain of several): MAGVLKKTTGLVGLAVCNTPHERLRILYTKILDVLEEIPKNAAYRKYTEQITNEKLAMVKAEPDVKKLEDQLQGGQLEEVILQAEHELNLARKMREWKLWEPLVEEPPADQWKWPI
Chain of Serine/arginine-rich splicing factor 3 (Homo sapiens) (P84103 whole entry): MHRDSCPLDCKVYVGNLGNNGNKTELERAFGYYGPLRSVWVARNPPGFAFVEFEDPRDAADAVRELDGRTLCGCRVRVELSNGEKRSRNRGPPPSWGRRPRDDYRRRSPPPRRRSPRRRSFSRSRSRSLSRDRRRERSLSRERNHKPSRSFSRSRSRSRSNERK
Chain of Deoxynucleoside triphosphate triphosphohydrolase SAMHD1 (Homo sapiens) (Q9Y3Z3 whole entry): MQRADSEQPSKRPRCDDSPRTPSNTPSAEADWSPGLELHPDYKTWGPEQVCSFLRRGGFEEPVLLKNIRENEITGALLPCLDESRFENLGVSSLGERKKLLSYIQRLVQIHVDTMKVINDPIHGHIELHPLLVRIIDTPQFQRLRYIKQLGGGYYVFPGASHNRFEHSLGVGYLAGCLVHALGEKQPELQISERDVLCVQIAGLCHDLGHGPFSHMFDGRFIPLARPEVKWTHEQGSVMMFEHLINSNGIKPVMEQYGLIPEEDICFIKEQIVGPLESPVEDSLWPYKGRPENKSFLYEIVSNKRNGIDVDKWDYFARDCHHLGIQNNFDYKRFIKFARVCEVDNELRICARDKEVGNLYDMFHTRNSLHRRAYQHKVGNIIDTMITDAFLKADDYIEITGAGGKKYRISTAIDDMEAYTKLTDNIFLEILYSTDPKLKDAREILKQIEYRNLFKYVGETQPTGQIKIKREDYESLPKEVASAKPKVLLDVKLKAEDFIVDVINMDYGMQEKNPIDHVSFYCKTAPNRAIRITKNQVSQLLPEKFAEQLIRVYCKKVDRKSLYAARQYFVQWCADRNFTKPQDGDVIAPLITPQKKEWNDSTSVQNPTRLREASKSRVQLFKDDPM
Chain of Acylamino-acid-releasing enzyme (Homo sapiens) (P13798 whole entry): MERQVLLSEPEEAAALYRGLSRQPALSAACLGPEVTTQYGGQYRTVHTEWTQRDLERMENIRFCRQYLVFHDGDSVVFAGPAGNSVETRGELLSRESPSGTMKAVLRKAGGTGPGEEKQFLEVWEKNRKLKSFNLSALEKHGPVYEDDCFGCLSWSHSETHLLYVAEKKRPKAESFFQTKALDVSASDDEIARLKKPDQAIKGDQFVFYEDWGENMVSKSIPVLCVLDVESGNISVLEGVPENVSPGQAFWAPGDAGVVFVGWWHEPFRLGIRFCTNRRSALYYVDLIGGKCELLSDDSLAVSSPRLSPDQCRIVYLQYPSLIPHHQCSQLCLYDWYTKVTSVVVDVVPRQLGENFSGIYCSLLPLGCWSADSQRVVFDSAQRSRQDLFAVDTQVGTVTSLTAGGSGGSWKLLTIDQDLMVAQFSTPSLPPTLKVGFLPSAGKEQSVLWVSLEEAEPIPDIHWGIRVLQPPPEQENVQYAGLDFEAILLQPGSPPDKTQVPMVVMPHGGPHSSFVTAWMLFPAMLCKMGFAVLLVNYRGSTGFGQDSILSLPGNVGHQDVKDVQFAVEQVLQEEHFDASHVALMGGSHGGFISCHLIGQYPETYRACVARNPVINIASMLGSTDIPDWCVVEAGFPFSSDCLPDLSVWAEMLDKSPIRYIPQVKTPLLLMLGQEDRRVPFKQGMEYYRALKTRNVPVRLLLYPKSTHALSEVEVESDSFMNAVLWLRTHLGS
Chain of Mitogen-activated protein kinase kinase kinase kinase 2 (Homo sapiens) (Q12851 whole entry): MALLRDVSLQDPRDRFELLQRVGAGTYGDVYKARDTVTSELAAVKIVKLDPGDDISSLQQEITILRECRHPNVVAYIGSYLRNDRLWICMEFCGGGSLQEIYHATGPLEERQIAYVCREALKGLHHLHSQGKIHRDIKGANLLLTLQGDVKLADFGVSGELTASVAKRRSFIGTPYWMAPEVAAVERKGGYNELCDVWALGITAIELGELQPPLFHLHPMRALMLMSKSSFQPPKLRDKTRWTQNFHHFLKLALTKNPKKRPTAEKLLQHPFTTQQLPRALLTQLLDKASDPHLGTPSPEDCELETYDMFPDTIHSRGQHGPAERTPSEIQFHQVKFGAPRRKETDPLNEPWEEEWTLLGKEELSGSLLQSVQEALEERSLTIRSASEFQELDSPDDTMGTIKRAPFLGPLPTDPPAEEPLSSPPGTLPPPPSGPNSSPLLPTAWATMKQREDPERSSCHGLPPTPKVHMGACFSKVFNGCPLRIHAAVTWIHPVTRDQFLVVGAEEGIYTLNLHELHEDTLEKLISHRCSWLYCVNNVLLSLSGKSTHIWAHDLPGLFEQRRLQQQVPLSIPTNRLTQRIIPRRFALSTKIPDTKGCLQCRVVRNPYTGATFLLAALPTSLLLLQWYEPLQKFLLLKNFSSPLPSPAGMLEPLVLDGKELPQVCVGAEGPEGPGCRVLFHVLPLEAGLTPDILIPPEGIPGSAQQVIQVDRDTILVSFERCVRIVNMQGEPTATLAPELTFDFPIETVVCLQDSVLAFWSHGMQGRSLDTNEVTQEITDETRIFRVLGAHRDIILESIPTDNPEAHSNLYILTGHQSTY
Chain of Mitochondrial antiviral-signaling protein (Homo sapiens) (Q7Z434 whole entry): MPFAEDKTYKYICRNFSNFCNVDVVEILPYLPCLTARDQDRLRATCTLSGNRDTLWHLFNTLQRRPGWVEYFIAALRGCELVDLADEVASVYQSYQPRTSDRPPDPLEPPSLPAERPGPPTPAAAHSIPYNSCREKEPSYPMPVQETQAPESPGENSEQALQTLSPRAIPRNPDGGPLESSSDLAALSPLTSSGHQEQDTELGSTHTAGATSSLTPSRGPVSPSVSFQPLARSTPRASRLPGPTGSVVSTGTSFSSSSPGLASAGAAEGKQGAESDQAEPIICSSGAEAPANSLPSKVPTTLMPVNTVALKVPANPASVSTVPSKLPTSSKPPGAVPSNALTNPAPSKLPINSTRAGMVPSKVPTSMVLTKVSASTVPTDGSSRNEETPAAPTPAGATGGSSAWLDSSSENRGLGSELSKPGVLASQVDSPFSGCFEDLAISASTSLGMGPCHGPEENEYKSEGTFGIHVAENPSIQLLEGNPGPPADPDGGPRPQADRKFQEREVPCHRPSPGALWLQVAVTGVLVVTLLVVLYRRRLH
Chain of Glutamine--tRNA ligase (Homo sapiens) (P47897 whole entry): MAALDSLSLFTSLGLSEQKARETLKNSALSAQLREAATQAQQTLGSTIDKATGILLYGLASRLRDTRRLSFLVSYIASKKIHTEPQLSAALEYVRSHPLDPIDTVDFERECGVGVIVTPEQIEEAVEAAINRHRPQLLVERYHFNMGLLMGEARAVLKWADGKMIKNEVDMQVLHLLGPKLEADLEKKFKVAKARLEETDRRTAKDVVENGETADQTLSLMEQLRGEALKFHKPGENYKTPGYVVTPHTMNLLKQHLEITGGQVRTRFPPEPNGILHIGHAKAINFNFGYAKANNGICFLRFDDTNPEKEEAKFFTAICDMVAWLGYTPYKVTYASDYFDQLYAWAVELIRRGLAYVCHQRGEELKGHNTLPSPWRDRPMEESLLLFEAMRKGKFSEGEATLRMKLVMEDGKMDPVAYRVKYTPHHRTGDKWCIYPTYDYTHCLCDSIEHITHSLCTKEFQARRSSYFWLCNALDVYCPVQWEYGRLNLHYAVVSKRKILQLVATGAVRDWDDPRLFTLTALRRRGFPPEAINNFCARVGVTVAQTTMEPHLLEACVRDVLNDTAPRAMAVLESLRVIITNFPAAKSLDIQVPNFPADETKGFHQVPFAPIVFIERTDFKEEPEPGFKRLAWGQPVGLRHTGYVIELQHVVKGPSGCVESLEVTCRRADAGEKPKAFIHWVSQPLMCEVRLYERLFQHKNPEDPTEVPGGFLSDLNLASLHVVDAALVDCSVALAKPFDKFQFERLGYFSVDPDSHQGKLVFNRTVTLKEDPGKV
Chain of Dynein light chain 1, cytoplasmic (Homo sapiens) (P63167 whole entry): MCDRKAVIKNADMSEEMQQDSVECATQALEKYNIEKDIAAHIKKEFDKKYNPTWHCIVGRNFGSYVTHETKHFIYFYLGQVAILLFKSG

Compound: Cc1ccc(C(=O)Nc2cccc(C(F)(F)F)c2)cc1Nc1nc(-c2cccnc2)nc2c1cnn2C
- ED50 (Homo sapiens [1]): 3.01 µM
- ED50 [2]: 33.2 µM
- ED50 [3]: 11.9 µM
- ED50 [4]: 0.0282 µM
- ED50 [5]: 3.49 µM
- ED50 [6]: 20 µM
- ED50 [7]: 0.488 µM
- ED50 (Cyclin-T1 (Homo sapiens)): 0.0168 µM
- ED50 [8]: 0.00189 µM
- ED50 [9]: 1.94 µM
- ED50 [10]: 0.0244 µM
- ED50 [11]: 0.0155 µM
- ED50 [12]: 3 µM
- ED50 (Erlin-1 (Homo sapiens)): 0.367 µM
- ED50 [13]: 0.141 µM
- ED50 (Homo sapiens [14]): 0.0217 µM
- ED50 [15]: 5.02 µM
- ED50 [16]: 0.00555 µM
- ED50 [17]: 0.00186 µM
- ED50 [18]: 0.00901 µM
- ED50 [19]: 0.0201 µM
- ED50 [20]: 5.26 µM
- ED50 [21]: 5.05 µM
- ED50 [22]: 3.76 µM
- ED50 [23]: 9.68 µM
- ED50 (Peflin (Homo sapiens)): 6.52 µM
- ED50 [24]: 0.0298 µM
- ED50 [25]: 0.0993 µM
- ED50 [26]: 3.68 µM
- ED50 [27]: 12900 µM
- ED50 [28]: 0.107 µM
- ED50 (Homo sapiens [29]): 4.25 µM
- ED50 [30]: 13.5 µM
- ED50 [31]: 0.0304 µM
- ED50 [32]: 60 µM
- ED50 [33]: 5000 µM
- ED50 [34]: 0.00363 µM
- ED50 [35]: 2.22 µM
- ED50 [36]: 1.06 µM
- ED50 [37]: 0.162 µM
- ED50 [38]: 10.3 µM
- ED50 [39]: 0.829 µM
- ED50 [40]: 0.0187 µM
- ED50 [41]: 0.0563 µM
- ED50 [42]: 7.63 µM
- ED50 [43]: 0.000531 µM
- ED50 [44]: 0.00449 µM

Compound: Cc1ccc(C(=O)Nc2cccc(C(F)(F)F)c2)cc1Nc1nc(-c2cccnc2)nc2nn(C)cc12
- ED50 (Homo sapiens [1]): 0.135 µM
- ED50 [2]: 0.216 µM
- ED50 [3]: 0.331 µM
- ED50 [4]: 3.75 µM
- ED50 [5]: 2.93 µM
- ED50 [6]: 0.531 µM
- ED50 [7]: 0.852 µM
- ED50 (Cyclin-T1 (Homo sapiens)): 0.0502 µM
- ED50 [8]: 0.615 µM
- ED50 [9]: 0.487 µM
- ED50 [10]: 0.0164 µM
- ED50 [11]: 5.16 µM
- ED50 [12]: 0.223 µM
- ED50 (Erlin-1 (Homo sapiens)): 0.00442 µM
- ED50 [13]: 155 µM
- ED50 (Homo sapiens [14]): 481 µM
- ED50 [15]: 5.75 µM
- ED50 [16]: 173 µM
- ED50 [17]: 0.0878 µM
- ED50 [18]: 21.8 µM
- ED50 [19]: 0.0236 µM
- ED50 [20]: 0.394 µM
- ED50 [21]: 0.253 µM
- ED50 [22]: 7.98 µM
- ED50 [23]: 25.1 µM
- ED50 (Peflin (Homo sapiens)): 10.8 µM
- ED50 [24]: 0.255 µM
- ED50 [25]: 83.4 µM
- ED50 [26]: 0.377 µM
- ED50 [27]: 0.0643 µM
- ED50 [28]: 17 µM
- ED50 (Homo sapiens [29]): 0.0418 µM
- ED50 [30]: 9.45 µM
- ED50 [31]: 12.9 µM
- ED50 [32]: 0.00683 µM
- ED50 [33]: 0.0478 µM
- ED50 [34]: 12.8 µM
- ED50 [35]: 1.19 µM
- ED50 [36]: 0.0813 µM
- ED50 [37]: 0.00734 µM
- ED50 [38]: 0.0871 µM
- ED50 [39]: 34.9 µM
- ED50 [40]: 3.85 µM
- ED50 [41]: 0.0585 µM
- ED50 [42]: 9 µM
- ED50 [43]: 0.137 µM
- ED50 [44]: 0.68 µM
